Laboratory results: patent publication US20240083853A1, “HSD17B13 INHIBITORS AND USES THEREOF” (FL2022-001, Inc., priority 2020, published 2024)

What follows are molecules tested against T1, Recombinant human HSD17B13 enzyme (Homo sapiens, UniProt Q7Z5P4) (assay: HSD17b13 NAD(P)H-Glo biochemical assay). Details: 50 uM estradiol, 1 mM NAD+, NAD(P)H-Glo luminescence; read-out: HSD17β13 IC50.
T1 sequence (Q7Z5P4 20-300): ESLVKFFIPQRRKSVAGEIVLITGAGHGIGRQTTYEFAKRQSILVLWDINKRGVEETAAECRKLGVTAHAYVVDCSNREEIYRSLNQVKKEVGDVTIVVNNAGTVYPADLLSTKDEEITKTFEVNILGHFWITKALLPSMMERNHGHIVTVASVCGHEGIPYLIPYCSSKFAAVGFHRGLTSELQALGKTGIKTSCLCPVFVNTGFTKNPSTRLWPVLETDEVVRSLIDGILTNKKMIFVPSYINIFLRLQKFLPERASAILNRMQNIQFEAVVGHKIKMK
Summary of the method: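 Recombinant human HSD17B13 in 20 mM Tris pH7.4 with 0.002% Tween-20 and 0.02% BSA was preincubated with inhibitor for 20 minutes at RT. The reaction ran 3 hours at 37° C with 50 uM estradiol and 1 mM NAD+ (final). NADH formed was detected by NAD(P)H-Glo luminescence after 1 hour at RT.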

| Compound | IC50 [nM] |
| --- | --- |
| CC1(C)CCN(c2ccc(-n3c(=O)n(CO)c4cc(F)c(O)c(F)c43)cc2)CC1 [Compound 21.12, 3-(4-(4,4-Dimethylpiperidin-1-yl)phenyl)-4,6-difluoro-5-hydroxy-1-(hydroxymethyl)-1H-benzo[d]imidazol-2(3H)-one] | < 100 |
| CC(C)n1c(=O)n(-c2ccc(N3CCC(C)(C)CC3)cc2)c2c(F)c(O)c(F)cc21 [Compound 21.13, 3-(4-(4,4-Dimethylpiperidin-1-yl)phenyl)-4,6-difluoro-5-hydroxy-1-isopropyl-1H-benzo[d]imidazol-2(3H)-one] | 100 to 1000 |
| N#CC1CCN(c2ccc(-n3ncc4cc(F)c(O)c(F)c43)cc2)CC1 [Compound 22, 1-(4-(5,7-Difluoro-6-hydroxy-1H-indazol-1-yl)phenyl)piperidine-4-carbonitrile] | < 100 |
| CS(=O)(=O)C1CN(c2ccc(-n3ncc4cc(F)c(O)c(F)c43)cc2)C1 [Compound 22.1, 5,7-Difluoro-1-(4-(3-(methylsulfonyl)azetidin-1-yl)phenyl)-1H-indazol-6-ol] | 100 to 1000 |
| CS(=O)(=O)C1CCN(c2ccc(-n3ncc4cc(F)c(O)c(F)c43)cc2)C1 (stereo not shown) [Compound 22.2, 5,7-Difluoro-1-(4-(3-(methylsulfonyl)pyrrolidin-1-yl)phenyl)-1H-indazol-6-ol] | 100 to 1000 |
| CS(=O)(=O)C1CCN(c2ccc(-n3ncc4cc(F)c(O)c(F)c43)cc2)CC1 [Compound 22.3, 5,7-Difluoro-1-(4-(4-(methylsulfonyl)piperidin-1-yl)phenyl)-1H-indazol-6-ol] | 100 to 1000 |
| COC1CCN(c2ccc(-n3ncc4cc(F)c(O)c(F)c43)cc2)CC1 [Compound 22.4, 5,7-Difluoro-1-(4-(4-methoxypiperidin-1-yl)phenyl)-1H-indazol-6-ol] | < 100 |
| COC1CCN(c2ccc(-n3ncc4cc(F)c(O)c(F)c43)cc2)C1 (stereo not shown) [Compound 22.5, 5,7-Difluoro-1-(4-(3-methoxypyrrolidin-1-yl)phenyl)-1H-indazol-6-ol] | < 100 |
| CC1(C)CCN(c2ccc(-n3ncc4cc(F)c(O)c(F)c43)cc2)CC1 [Compound 23, 1-(4-(4,4-Dimethylpiperidin-1-yl)phenyl)-5,7-difluoro-1H-indazol-6-ol] | < 100 |
| Oc1c(F)cc2cnn(-c3ccc(N4CCC(O)CC4)cc3)c2c1F [Compound 23.1, 5,7-Difluoro-1-(4-(4-hydroxypiperidin-1-yl)phenyl)-1H-indazol-6-ol] | 100 to 1000 |
| Oc1c(F)cc2cnn(-c3ccc(N4CCCCC4)cc3)c2c1F [Compound 23.2, 5,7-Difluoro-1-(4-(piperidin-1-yl)phenyl)-1H-indazol-6-ol] | < 100 |
| Oc1c(F)cc2cnn(-c3ccc(N4CCOCC4)cc3)c2c1F [Compound 23.3, 5,7-Difluoro-1-(4-morpholinophenyl)-1H-indazol-6-ol] | 100 to 1000 |
| Oc1c(F)cc2cnn(-c3ccc(N4CCSCC4)cc3)c2c1F [Compound 23.4, 5,7-Difluoro-1-(4-thiomorpholinophenyl)-1H-indazol-6-ol] | < 100 |
| O=S1(=O)CCN(c2ccc(-n3ncc4cc(F)c(O)c(F)c43)cc2)CC1 [Compound 23.5, 4-(4-(5,7-Difluoro-6-hydroxy-1H-indazol-1-yl)phenyl)thiomorpholine 1,1-dioxide] | 100 to 1000 |
| CC1(C)CN(S(C)(=O)=O)CCN1c1ccc(-n2ncc3cc(F)c(O)c(F)c32)cc1 [Compound 23.6, 1-(4-(2,2-Dimethyl-4-(methylsulfonyl)piperazin-1-yl)phenyl)-5,7-difluoro-1H-indazol-6-ol] | 100 to 1000 |
| CS(=O)(=O)N1CCN(c2ccc(-n3ncc4cc(F)c(O)c(F)c43)cc2F)CC1 [Compound 23.7, 5,7-Difluoro-1-(3-fluoro-4-(4-(methylsulfonyl)piperazin-1-yl)phenyl)-1H-indazol-6-ol] | 100 to 1000 |
| CCS(=O)(=O)N1CCN(c2ccc(-n3ncc4cc(F)c(O)c(F)c43)cc2)CC1 [Compound 23.8, 1-(4-(4-(Ethylsulfonyl)piperazin-1-yl)phenyl)-5,7-difluoro-1H-indazol-6-ol] | 100 to 1000 |
| CC(C)S(=O)(=O)N1CCN(c2ccc(-n3ncc4cc(F)c(O)c(F)c43)cc2)CC1 [Compound 23.9, 5,7-Difluoro-1-(4-(4-(isopropylsulfonyl)piperazin-1-yl)phenyl)-1H-indazol-6-ol] | 100 to 1000 |
| Oc1c(F)cc2cnn(-c3ccc(N4CCCC4)cc3)c2c1F [Compound 23.10, 5,7-Difluoro-1-(4-(pyrrolidin-1-yl)phenyl)-1H-indazol-6-ol] | < 100 |
| CC1(C)CCN(c2ccc(-n3ncc4cc(F)c(O)c(F)c43)cc2)C1 [Compound 23.11, 1-(4-(3,3-Dimethylpyrrolidin-1-yl)phenyl)-5,7-difluoro-1H-indazol-6-ol] | < 100 |

| Compound | IC50 [nM] |
| --- | --- |
| Oc1c(F)cc2cnn(-c3ccc(N4CCC4)cc3)c2c1F [Compound 23.12, 1-(4-(Azetidin-1-yl)phenyl)-5,7-difluoro-1H-indazol-6-ol] | 100 to 1000 |
| CC1(C)CN(c2ccc(-n3ncc4cc(F)c(O)c(F)c43)cc2)C1 [Compound 23.13, 1-(4-(3,3-Dimethylazetidin-1-yl)phenyl)-5,7-difluoro-1H-indazol-6-ol] | < 100 |
| CS(=O)(=O)N1CCCN(c2ccc(-n3ncc4cc(F)c(O)c(F)c43)cc2)CC1 [Compound 23.14, 5,7-Difluoro-1-(4-(4-(methylsulfonyl)-1,4-diazepan-1-yl)phenyl)-1H-indazol-6-ol] | 100 to 1000 |
| CS(=O)(=O)N1C2CC1CN(c1ccc(-n3ncc4cc(F)c(O)c(F)c43)cc1)C2 [Compound 23.15, 5,7-Difluoro-1-(4-(6-(methylsulfonyl)-3,6-diazabicyclo[3.1.1]heptan-3-yl)phenyl)-1H-indazol-6-ol] | 100 to 1000 |
| Oc1c(F)cc2cnn(-c3ccc(N4CC5CC(C4)O5)cc3)c2c1F [Compound 23.16, 1-(4-(6-Oxa-3-azabicyclo[3.1.1]heptan-3-yl)phenyl)-5,7-difluoro-1H-indazol-6-ol] | 100 to 1000 |
| CS(=O)(=O)NC1CCN(c2ccc(-n3ncc4cc(F)c(O)c(F)c43)cc2)CC1 [Compound 23.17, N-(1-(4-(5,7-Difluoro-6-hydroxy-1H-indazol-1-yl)phenyl)piperidin-4-yl)methanesulfonamide] | 100 to 1000 |
| CC1CCN(c2ccc(-n3ncc4cc(F)c(O)c(F)c43)cc2)CC1 [Compound 23.18, 5,7-Difluoro-1-(4-(4-methylpiperidin-1-yl)phenyl)-1H-indazol-6-ol] | < 100 |
| CC1(C)CCCN(c2ccc(-n3ncc4cc(F)c(O)c(F)c43)cc2)C1 [Compound 23.19, 1-(4-(3,3-Dimethylpiperidin-1-yl)phenyl)-5,7-difluoro-1H-indazol-6-ol] | < 100 |
| Oc1c(F)cc2cnn(-c3ccc(N4CCC(F)(F)CC4)cc3)c2c1F [Compound 23.20, 1-(4-(4,4-Difluoropiperidin-1-yl)phenyl)-5,7-difluoro-1H-indazol-6-ol] | < 100 |
| CC1(C#N)CCN(c2ccc(-n3ncc4cc(F)c(O)c(F)c43)cc2)CC1 [Compound 23.21, 1-(4-(5,7-Difluoro-6-hydroxy-1H-indazol-1-yl)phenyl)-4-methylpiperidine-4-carbonitrile] | < 100 |
| CC1(O)CCN(c2ccc(-n3ncc4cc(F)c(O)c(F)c43)cc2)CC1 [Compound 23.22, 5,7-Difluoro-1-(4-(4-hydroxy-4-methylpiperidin-1-yl)phenyl)-1H-indazol-6-ol] | 100 to 1000 |
| Oc1c(F)cc2cnn(-c3ccc(N4CCC5(CC4)CC5)cc3)c2c1F [Compound 23.23, 1-(4-(6-Azaspiro[2.5]octan-6-yl)phenyl)-5,7-difluoro-1H-indazol-6-ol] | < 100 |
| Oc1c(F)cc2cnn(-c3ccc(N4CCC5(CCC5)CC4)cc3)c2c1F [Compound 23.24, 1-(4-(7-Azaspiro[3.5]nonan-7-yl)phenyl)-5,7-difluoro-1H-indazol-6-ol] | < 100 |
| Oc1c(F)cc2cnn(-c3ccc(N4CCC5(CC4)COC5)cc3)c2c1F [Compound 23.25, 1-(4-(2-Oxa-7-azaspiro[3.5]nonan-7-yl)phenyl)-5,7-difluoro-1H-indazol-6-ol] | < 100 |
| Oc1c(F)cc2cnn(-c3ccc(N4CC5(CCOCC5)C4)cc3)c2c1F [Compound 23.26, 1-(4-(7-Oxa-2-azaspiro[3.5]nonan-2-yl)phenyl)-5,7-difluoro-1H-indazol-6-ol] | < 100 |
| CC1(C#N)CN(c2ccc(-n3ncc4cc(F)c(O)c(F)c43)cc2)C1 [Compound 23.27, 1-(4-(5,7-Difluoro-6-hydroxy-1H-indazol-1-yl)phenyl)-3-methylazetidine-3-carbonitrile] | < 100 |
| Oc1c(F)cc2cnn(-c3ccc(N4CCC5(CC4)CNC5)cc3)c2c1F [Compound 23.28, 1-(4-(2,7-Diazaspiro[3.5]nonan-7-yl)phenyl)-5,7-difluoro-1H-indazol-6-ol] | 100 to 1000 |
| CCC1(CC)CN(c2ccc(-n3ncc4cc(F)c(O)c(F)c43)cc2)C1 [Compound 24, 1-(4-(3,3-Diethylazetidin-1-yl)phenyl)-5,7-difluoro-1H-indazol-6-ol] | < 100 |
| CN1CCN(c2ccc(-n3ncc4cc(F)c(O)c(F)c43)cc2)CC1 [Compound 24.1, 5,7-Difluoro-1-(4-(4-methylpiperazin-1-yl)phenyl)-1H-indazol-6-ol] | 100 to 1000 |
| CC(C)N1CCN(c2ccc(-n3ncc4cc(F)c(O)c(F)c43)cc2)CC1 [Compound 24.2, 5,7-Difluoro-1-(4-(4-isopropylpiperazin-1-yl)phenyl)-1H-indazol-6-ol] | 100 to 1000 |
